Results from patent US6437128B1, “Cribrostatins 3-5” (Arizona Board of Regents, priority 2001, dated 2002).

Key:
[1] = test system: Penicillin-resistant S. pneumoniae (clinical isolate); assay: Antimicrobial disk diffusion; format: cell-based
[2] = test system: Candida albicans (ATCC 90028); assay: Antimicrobial disk diffusion; format: cell-based
[3] = test system: Enterobacter cloacae (ATCC 13047); assay: Antimicrobial disk diffusion; format: cell-based
[4] = test system: Streptococcus pneumoniae (ATCC 6303); assay: Antimicrobial disk diffusion; format: cell-based
[5] = test system: Enterococcus faecalis (ATCC 29212); assay: Antimicrobial disk diffusion; format: cell-based
[6] = test system: Micrococcus luteus (Presque Isle 456); assay: Antimicrobial disk diffusion; format: cell-based
[7] = test system: Staphylococcus aureus (ATCC 29213); assay: Antimicrobial disk diffusion; format: cell-based
[8] = test system: Invasive S. pneumoniae (clinical isolate); assay: Antimicrobial disk diffusion; format: cell-based
[9] = test system: Group A Streptococcus (clinical isolate); assay: Antimicrobial disk diffusion; format: cell-based
[10] = test system: Neisseria gonorrhoeae (ATCC 49226); assay: Antimicrobial disk diffusion; format: cell-based
[11] = test system: Penicillin-resistant N. gonorrhoeae (clinical isolate); assay: Antimicrobial disk diffusion; format: cell-based
[12] = test system: Stenotrophomonas maltophilia (ATCC 13637); assay: Antimicrobial disk diffusion; format: cell-based
[13] = test system: Bacillus subtilis (Presque Isle 620); assay: Antimicrobial disk diffusion; format: cell-based
[14] = test system: Cryptococcus neoformans (ATCC 90112); assay: Antimicrobial disk diffusion; format: cell-based
[15] = test system: Escherichia coli (ATCC 25922); assay: Antimicrobial disk diffusion; format: cell-based
OVCAR-3 = assay: NCI 60-cell screen; format: cell-based, human; details: averaged, quadruplicate, upper limit 10^−5 M
SR = assay: NCI 60-cell screen; format: cell-based, human; details: averaged, quadruplicate, upper limit 10^−5 M
786-O = assay: NCI 60-cell screen; format: cell-based, human; details: averaged, quadruplicate, upper limit 10^−5 M
NCI-H460 = assay: NCI 60-cell screen; format: cell-based, human; details: averaged, quadruplicate, upper limit 10^−5 M
SW-620 = assay: NCI 60-cell screen; format: cell-based, human; details: averaged, quadruplicate, upper limit 10^−5 M
MALME-3M = assay: NCI 60-cell screen; format: cell-based, human; details: averaged, quadruplicate, upper limit 10^−5 M
MDA-MB-435 = assay: NCI 60-cell screen; format: cell-based, human; details: averaged, quadruplicate, upper limit 10^−5 M
RPMI-8226 = assay: NCI 60-cell screen; format: cell-based, human; details: averaged, quadruplicate, upper limit 10^−5 M
UACC-62 = assay: NCI 60-cell screen; format: cell-based, human; details: averaged, quadruplicate, upper limit 10^−5 M
IGROV1 = assay: NCI 60-cell screen; format: cell-based, human; details: averaged, quadruplicate, upper limit 10^−5 M
CCRF-CEM = assay: NCI 60-cell screen; format: cell-based, human; details: averaged, quadruplicate, upper limit 10^−5 M
U251 = assay: NCI 60-cell screen; format: cell-based, human; details: averaged, quadruplicate, upper limit 10^−5 M
HOP-92 = assay: NCI 60-cell screen; format: cell-based, human; details: averaged, quadruplicate, upper limit 10^−5 M
COLO 205 = assay: NCI 60-cell screen; format: cell-based, human; details: averaged, quadruplicate, upper limit 10^−5 M
MCF7 = assay: NCI 60-cell screen; format: cell-based, human; details: averaged, quadruplicate, upper limit 10^−5 M
SN12C = assay: NCI 60-cell screen; format: cell-based, human; details: averaged, quadruplicate, upper limit 10^−5 M
HS578T = assay: NCI 60-cell screen; format: cell-based, human; details: averaged, quadruplicate, upper limit 10^−5 M
MDA-N = assay: NCI 60-cell screen; format: cell-based, human; details: averaged, quadruplicate, upper limit 10^−5 M
OVCAR4 = assay: NCI 60-cell screen; format: cell-based, human; details: averaged, quadruplicate, upper limit 10^−5 M
KM20L2 (Colon) = assay: ASU-CRI minipanel of human cancer cell lines; format: cell-based
Excerpt: (§1) Individual cell line response values are provided in the Experimental.

SF-295 (CNS) = assay: ASU-CRI minipanel of human cancer cell lines; format: cell-based; details: CNS SF-295
Excerpt: as §1

BXPC-3 (Pancreas-a) = assay: ASU-CRI minipanel of human cancer cell lines; format: cell-based; details: Pancreas-a BXPC-3
Excerpt: as §1

OVCAR-3 (Ovarian) = assay: ASU-CRI minipanel of human cancer cell lines; format: cell-based; details: Ovarian OVCAR-3
Excerpt: as §1

NCI-H460 (Lung-NSC) = assay: ASU-CRI minipanel of human cancer cell lines; format: cell-based
Excerpt: as §1

DU-145 (Prostate) = assay: ASU-CRI minipanel of human cancer cell lines; format: cell-based; details: Prostate DU-145
Excerpt: as §1

[16] = test system: NCI 60-cell in vitro panel; assay: NCI 60-cell in vitro panel, mean panel; format: cell-based, human; details: average ±SEM from the 40 cell lines that yielded GI50 values for both 4a and 5
Excerpt: as §1

A549/ATCC = assay: NCI 60-cell screen; format: cell-based, human; details: averaged, quadruplicate, upper limit 10^−5 M
SF-295 = assay: NCI 60-cell screen; format: cell-based, human; details: averaged, quadruplicate, upper limit 10^−5 M
RXF-393 = assay: NCI 60-cell screen; format: cell-based, human; details: averaged, quadruplicate, upper limit 10^−5 M
MOLT-4 = assay: NCI 60-cell screen; format: cell-based, human; details: averaged, quadruplicate, upper limit 10^−5 M
MDA-MB-231/ATCC = assay: NCI 60-cell screen; format: cell-based, human; details: averaged, quadruplicate, upper limit 10^−5 M
ACHN = assay: NCI 60-cell screen; format: cell-based, human; details: averaged, quadruplicate, upper limit 10^−5 M
SNB-75 = assay: NCI 60-cell screen; format: cell-based, human; details: averaged, quadruplicate, upper limit 10^−5 M
HOP-62 = assay: NCI 60-cell screen; format: cell-based, human; details: averaged, quadruplicate, upper limit 10^−5 M
SF-539 = assay: NCI 60-cell screen; format: cell-based, human; details: averaged, quadruplicate, upper limit 10^−5 M
T-47D = assay: NCI 60-cell screen; format: cell-based, human; details: averaged, quadruplicate, upper limit 10^−5 M
NCI-H522 = assay: NCI 60-cell screen; format: cell-based, human; details: averaged, quadruplicate, upper limit 10^−5 M
MCF7/ADR-RES = assay: NCI 60-cell screen; format: cell-based, human; details: averaged, quadruplicate, upper limit 10^−5 M
SK-MEL-5 = assay: NCI 60-cell screen; format: cell-based, human; details: averaged, quadruplicate, upper limit 10^−5 M
LOX IMVI = assay: NCI 60-cell screen; format: cell-based, human; details: averaged, quadruplicate, upper limit 10^−5 M
PC-3 = assay: NCI 60-cell screen; format: cell-based, human; details: averaged, quadruplicate, upper limit 10^−5 M
K-562 = assay: NCI 60-cell screen; format: cell-based, human; details: averaged, quadruplicate, upper limit 10^−5 M
[17] = test system: P388 lymphocytic leukemia; assay: in vitro murine P388 lymphocytic leukemia (PS) cell growth inhibition; format: cell-based
Excerpt: The fractions obtained from the 1988-89 recollection of Cribrochalina so. (See: Pettit, G. R.; Collins, J. C.; Herald, D. L.; Doubek, D. L.; Boyd, M. R.; Schmidt, J. M.; Hooper, J. N. A.; Tackett, L. P. Can. J. Cheim. 1992, 70, 1170-1175) beginning with the 195 g dichloromethane partition fraction were re-examined guided by bioassay results using the murine P388 lymphocytic leukemia.
as §1

OVCAR-8 = assay: NCI 60-cell screen; format: cell-based, human; details: averaged, quadruplicate, upper limit 10^−5 M
NCI-H226 = assay: NCI 60-cell screen; format: cell-based, human; details: averaged, quadruplicate, upper limit 10^−5 M
KM 12 = assay: NCI 60-cell screen; format: cell-based, human; details: averaged, quadruplicate, upper limit 10^−5 M
HL-60 (TB) = assay: NCI 60-cell screen; format: cell-based, human; details: averaged, quadruplicate, upper limit 10^−5 M
SF-268 = assay: NCI 60-cell screen; format: cell-based, human; details: averaged, quadruplicate, upper limit 10^−5 M

## CCOC1=C(C)C(=O)c2cc(=O)n(C)cc2C1=O [Cribrostatin 2, cribrostatin 2, reference compound]
[1]
  Minimum inhibitory concentration: 25-50 μg/disk
[2]
  Minimum inhibitory concentration: 3.12-6.25 μg/disk
[3]
  Minimum inhibitory concentration: * (No inhibition at 100 μg/disk)
[4]
  Minimum inhibitory concentration: 12.3-25 μg/disk
[5]
  Minimum inhibitory concentration: * (No inhibition at 100 μg/disk)
[6]
  Minimum inhibitory concentration: 50-100 μg/disk
[7]
  Minimum inhibitory concentration: 12.5-25 μg/disk
[8]
  Minimum inhibitory concentration: 50-100 μg/disk
[9]
  Minimum inhibitory concentration: * (No inhibition at 100 μg/disk)
[10]
  Minimum inhibitory concentration: 0.39-0.78 μg/disk
[11]
  Minimum inhibitory concentration: 0.39-0.78 μg/disk
[12]
  Minimum inhibitory concentration: * (No inhibition at 100 μg/disk)
[13]
  Minimum inhibitory concentration: 25-50 μg/disk
[14]
  Minimum inhibitory concentration: 12.5-25 μg/disk
[15]
  Minimum inhibitory concentration: * (No inhibition at 100 μg/disk)

## cribrostatin 3
OVCAR-3
  negative log10 GI50: 5.74
SR
  negative log10 GI50: 5.47
786-O
  negative log10 GI50: 5.23
NCI-H460
  negative log10 GI50: 5.52
SW-620
  negative log10 GI50: 5.44
MALME-3M
  negative log10 GI50: 6.21
MDA-MB-435
  negative log10 GI50: 5.74
RPMI-8226
  negative log10 GI50: 5.07
UACC-62
  negative log10 GI50: 5.60
IGROV1
  negative log10 GI50: 5.14
CCRF-CEM
  negative log10 GI50: 5.37
U251
  negative log10 GI50: 5.49
HOP-92
  negative log10 GI50: 5.02
COLO 205
  negative log10 GI50: 5.23
MCF7
  negative log10 GI50: 5.33
SN12C
  negative log10 GI50: 5.21
HS578T
  negative log10 GI50: 5.20
MDA-N
  negative log10 GI50: 5.72
OVCAR4
  negative log10 GI50: 5.28
[2]
  Minimum inhibitory concentration: * (No inhibition at 100 μg/disk)
[3]
  Minimum inhibitory concentration: * (No inhibition at 100 μg/disk)
KM20L2 (Colon)
  GI50: >1 µg/mL
SF-295 (CNS)
  GI50: >1 µg/mL
BXPC-3 (Pancreas-a)
  GI50: >1 µg/mL
OVCAR-3 (Ovarian)
  GI50: 0.77 µg/mL
NCI-H460 (Lung-NSC)
  GI50: >1 µg/mL
DU-145 (Prostate)
  GI50: >1 µg/mL
[16]
  GI50: 4.27 µM
A549/ATCC
  negative log10 GI50: 5.46
[4]
  Minimum inhibitory concentration: * (No inhibition at 100 μg/disk)
SF-295
  negative log10 GI50: 5.44
[5]
  Minimum inhibitory concentration: * (No inhibition at 100 μg/disk)
RXF-393
  negative log10 GI50: 5.31
MOLT-4
  negative log10 GI50: 5.31
MDA-MB-231/ATCC
  negative log10 GI50: 5.06
ACHN
  negative log10 GI50: 5.02
[6]
  Minimum inhibitory concentration: * (No inhibition at 100 μg/disk)
SNB-75
  negative log10 GI50: 5.32
HOP-62
  negative log10 GI50: 5.27
SF-539
  negative log10 GI50: 5.32
[7]
  Minimum inhibitory concentration: * (No inhibition at 100 μg/disk)
T-47D
  negative log10 GI50: 5.19
NCI-H522
  negative log10 GI50: 5.41
MCF7/ADR-RES
  negative log10 GI50: 5.34
SK-MEL-5
  negative log10 GI50: 5.96
LOX IMVI
  negative log10 GI50: 5.39
PC-3
  negative log10 GI50: 5.70
K-562
  negative log10 GI50: 5.13
[17]; Mouse Leukemia P388
  GI50: 2.49 µg/mL
[17]; in vitro P388 lymphocytic leukemia
  PS ED50 (P388 ED50): 2.5 µg/mL
OVCAR-8
  negative log10 GI50: 5.06
[10]
  Minimum inhibitory concentration: 0.0975-0.195 μg/disk
[11]
  Minimum inhibitory concentration: 0.39-0.78 μg/disk
[12]
  Minimum inhibitory concentration: * (No inhibition at 100 μg/disk)
[13]
  Minimum inhibitory concentration: * (No inhibition at 100 μg/disk)
[14]
  Minimum inhibitory concentration: * (No inhibition at 100 μg/disk)
[15]
  Minimum inhibitory concentration: * (No inhibition at 100 μg/disk)
NCI-H226
  negative log10 GI50: 5.15
KM 12
  negative log10 GI50: 5.31
HL-60 (TB)
  negative log10 GI50: 5.51
SF-268
  negative log10 GI50: 5.20
